IC50 data for 21 compounds are collected here from ChEMBL document CHEMBL1134819, “Design and synthesis of potent and selective inhibitors of integrin VLA-4” (Bioorg Med Chem Lett, 2001).

The target of test [1] is Integrin alpha-4/beta-1, Rattus norvegicus. As to the kind of experiment: Inhibition of fluorescent Ramos cell adhesion to VCAM-1 by rat Very late antigen 4 (VLA-4) integrin.
A short description of test [2]: Inhibition of fluorescent Ramos cell adhesion to ICAM-1 by mouse Mac-1 integrin. In kind it is functional, cell-based.
Test [3] addresses T1, Integrin alpha-4/beta-1 (Homo sapiens, UniProt P05556+P13612). Kind of test: Inhibition of fluorescent Ramos cell adhesion to fibronectin by Very late antigen 4 (VLA-4). In kind it is cell-based.
Test [4] has as its target T2, Integrin alpha-4/beta-7 (Homo sapiens, UniProt P13612+P26010).
T2 sequence (P13612 whole entry): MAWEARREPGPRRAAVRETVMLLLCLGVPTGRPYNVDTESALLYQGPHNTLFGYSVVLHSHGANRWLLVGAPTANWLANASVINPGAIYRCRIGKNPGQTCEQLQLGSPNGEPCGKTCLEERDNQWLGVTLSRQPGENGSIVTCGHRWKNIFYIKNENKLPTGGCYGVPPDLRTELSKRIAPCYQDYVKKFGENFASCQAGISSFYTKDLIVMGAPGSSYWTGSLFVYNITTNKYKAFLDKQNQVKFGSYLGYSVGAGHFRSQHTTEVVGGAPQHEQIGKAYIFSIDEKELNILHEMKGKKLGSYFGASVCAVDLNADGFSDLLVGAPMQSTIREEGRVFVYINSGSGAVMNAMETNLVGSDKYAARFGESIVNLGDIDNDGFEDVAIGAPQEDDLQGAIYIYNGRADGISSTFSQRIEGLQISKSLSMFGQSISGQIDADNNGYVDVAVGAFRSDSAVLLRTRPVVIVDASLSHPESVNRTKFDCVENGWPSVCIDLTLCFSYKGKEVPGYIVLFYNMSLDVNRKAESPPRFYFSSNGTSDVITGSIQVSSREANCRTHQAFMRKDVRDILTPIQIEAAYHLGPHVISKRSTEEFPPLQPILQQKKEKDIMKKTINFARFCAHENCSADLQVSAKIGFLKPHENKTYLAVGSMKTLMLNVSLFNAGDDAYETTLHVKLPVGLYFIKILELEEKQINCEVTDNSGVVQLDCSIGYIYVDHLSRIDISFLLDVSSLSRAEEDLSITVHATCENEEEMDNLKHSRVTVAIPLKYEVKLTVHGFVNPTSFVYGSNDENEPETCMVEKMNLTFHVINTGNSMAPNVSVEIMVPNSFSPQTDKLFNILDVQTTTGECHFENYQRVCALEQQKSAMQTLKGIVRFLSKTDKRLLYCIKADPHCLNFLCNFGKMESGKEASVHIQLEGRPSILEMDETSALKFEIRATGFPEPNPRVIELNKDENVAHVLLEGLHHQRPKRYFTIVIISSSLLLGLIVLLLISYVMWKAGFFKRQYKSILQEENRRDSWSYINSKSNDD
T2 sequence (P26010 whole entry): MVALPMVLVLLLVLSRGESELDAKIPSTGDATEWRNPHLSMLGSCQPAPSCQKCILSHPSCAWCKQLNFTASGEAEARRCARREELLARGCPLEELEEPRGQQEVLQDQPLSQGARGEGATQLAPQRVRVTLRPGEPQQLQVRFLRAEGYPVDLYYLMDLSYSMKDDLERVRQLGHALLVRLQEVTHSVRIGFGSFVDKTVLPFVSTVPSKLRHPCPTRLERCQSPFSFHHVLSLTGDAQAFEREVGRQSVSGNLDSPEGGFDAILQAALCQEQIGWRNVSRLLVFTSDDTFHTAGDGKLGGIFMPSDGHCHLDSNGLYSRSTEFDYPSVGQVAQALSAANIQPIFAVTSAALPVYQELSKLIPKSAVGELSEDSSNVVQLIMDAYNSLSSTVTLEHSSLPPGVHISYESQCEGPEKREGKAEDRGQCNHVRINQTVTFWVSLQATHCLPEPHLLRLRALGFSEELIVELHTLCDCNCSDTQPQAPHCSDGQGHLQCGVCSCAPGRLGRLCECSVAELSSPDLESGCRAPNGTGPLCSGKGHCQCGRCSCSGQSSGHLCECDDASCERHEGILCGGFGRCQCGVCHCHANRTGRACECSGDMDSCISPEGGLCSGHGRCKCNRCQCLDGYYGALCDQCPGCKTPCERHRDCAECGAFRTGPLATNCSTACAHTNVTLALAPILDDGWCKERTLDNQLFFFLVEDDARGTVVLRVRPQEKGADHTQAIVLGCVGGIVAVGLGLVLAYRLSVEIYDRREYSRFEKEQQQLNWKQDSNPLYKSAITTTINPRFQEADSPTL
Kind of test: (§1) Inhibition of fluorescent Ramos cell adhesion to VCAM-1 by alpha4-beta7 integrin. In kind it is protein-complex assay.

In test [5] the target is Integrin alpha-5/beta-1 (Homo sapiens, UniProt P05556+P08648). As to the kind of experiment: Inhibition of fluorescent Ramos cell adhesion to fibronectin by Very late antigen 5 (VLA-5). Type of test: functional, cell-based.
Sequence of Integrin alpha-5/beta-1 (P05556 21-798 limits assumed): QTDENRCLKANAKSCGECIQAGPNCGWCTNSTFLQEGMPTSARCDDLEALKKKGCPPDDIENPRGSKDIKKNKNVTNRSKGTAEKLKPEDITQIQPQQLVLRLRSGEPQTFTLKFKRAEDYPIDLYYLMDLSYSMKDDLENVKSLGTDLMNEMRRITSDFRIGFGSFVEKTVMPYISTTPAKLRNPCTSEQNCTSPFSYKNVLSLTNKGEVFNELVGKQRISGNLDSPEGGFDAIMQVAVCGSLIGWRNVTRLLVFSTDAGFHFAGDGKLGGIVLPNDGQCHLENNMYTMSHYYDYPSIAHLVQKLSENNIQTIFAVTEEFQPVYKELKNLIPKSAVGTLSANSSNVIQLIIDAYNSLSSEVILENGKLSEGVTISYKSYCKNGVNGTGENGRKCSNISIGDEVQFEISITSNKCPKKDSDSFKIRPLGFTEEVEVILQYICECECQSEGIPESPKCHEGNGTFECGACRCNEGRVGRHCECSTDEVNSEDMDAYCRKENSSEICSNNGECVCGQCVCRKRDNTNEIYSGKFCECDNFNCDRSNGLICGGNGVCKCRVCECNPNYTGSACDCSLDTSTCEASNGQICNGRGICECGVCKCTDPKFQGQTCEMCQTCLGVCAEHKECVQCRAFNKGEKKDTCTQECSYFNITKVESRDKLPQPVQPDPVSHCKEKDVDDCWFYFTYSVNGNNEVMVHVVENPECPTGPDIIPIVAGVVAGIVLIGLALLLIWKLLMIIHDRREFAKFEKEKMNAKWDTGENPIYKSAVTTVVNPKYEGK
Sequence of Integrin alpha-5/beta-1 (P08648 42-894 limits assumed): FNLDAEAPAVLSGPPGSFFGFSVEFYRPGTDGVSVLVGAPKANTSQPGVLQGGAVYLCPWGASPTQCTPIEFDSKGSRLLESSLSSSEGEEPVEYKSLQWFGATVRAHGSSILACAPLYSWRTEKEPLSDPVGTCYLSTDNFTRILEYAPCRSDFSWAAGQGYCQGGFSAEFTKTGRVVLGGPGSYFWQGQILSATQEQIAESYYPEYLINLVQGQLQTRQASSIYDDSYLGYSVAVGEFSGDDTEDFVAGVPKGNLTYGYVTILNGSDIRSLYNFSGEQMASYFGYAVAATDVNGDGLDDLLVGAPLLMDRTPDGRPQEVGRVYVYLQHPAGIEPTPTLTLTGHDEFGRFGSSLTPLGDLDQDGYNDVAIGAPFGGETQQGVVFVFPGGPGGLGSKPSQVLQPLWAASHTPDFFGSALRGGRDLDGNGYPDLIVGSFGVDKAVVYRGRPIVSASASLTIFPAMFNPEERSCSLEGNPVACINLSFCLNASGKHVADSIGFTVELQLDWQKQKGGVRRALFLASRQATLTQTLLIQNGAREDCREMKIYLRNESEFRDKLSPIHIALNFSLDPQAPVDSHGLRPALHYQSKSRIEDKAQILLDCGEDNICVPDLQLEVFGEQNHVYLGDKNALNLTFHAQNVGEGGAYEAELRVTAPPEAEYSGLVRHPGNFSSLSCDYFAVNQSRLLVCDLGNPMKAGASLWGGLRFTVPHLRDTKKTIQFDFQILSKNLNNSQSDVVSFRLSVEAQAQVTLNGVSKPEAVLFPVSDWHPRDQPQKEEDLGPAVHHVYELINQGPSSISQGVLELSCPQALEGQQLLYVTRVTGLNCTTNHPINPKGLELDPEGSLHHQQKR
Sequence of Integrin alpha-5/beta-1 (P08648 895-1049 limits assumed): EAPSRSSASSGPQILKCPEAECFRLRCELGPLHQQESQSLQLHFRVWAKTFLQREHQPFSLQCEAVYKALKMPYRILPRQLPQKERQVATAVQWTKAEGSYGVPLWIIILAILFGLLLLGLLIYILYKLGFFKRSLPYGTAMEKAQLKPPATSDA
The nature of test [6]: Inhibition of fluorescent Ramos cell adhesion to vitronectin by alpha-V-beta-3-alphaV/beta-5 integrins. In kind it is functional, cell-based, Homo sapiens.
Test [7] concerns the target T1, Integrin alpha-4/beta-1. Kind of test: In vitro Very late antigen 4 cell adhesion inhibitory activity measured by binding of fluorescently labeled Ramos cells to immobilized VCAM-1. In kind it is cell-based.
Test [8] deals with Integrin alpha-4/beta-1, Mus musculus. Kind of test: Inhibition of fluorescent Ramos cell adhesion to VCAM-1 by mouse Very late antigen 4 (VLA-4) integrin.
For test [9] the target is unchanged. The test is described as above. The source holds these as a separate data set.
For test [10], the target named is T2, Integrin alpha-4/beta-7. The test is described as §1. In kind it is cell-based.

T1 sequence (P05556 whole entry, one chain of several): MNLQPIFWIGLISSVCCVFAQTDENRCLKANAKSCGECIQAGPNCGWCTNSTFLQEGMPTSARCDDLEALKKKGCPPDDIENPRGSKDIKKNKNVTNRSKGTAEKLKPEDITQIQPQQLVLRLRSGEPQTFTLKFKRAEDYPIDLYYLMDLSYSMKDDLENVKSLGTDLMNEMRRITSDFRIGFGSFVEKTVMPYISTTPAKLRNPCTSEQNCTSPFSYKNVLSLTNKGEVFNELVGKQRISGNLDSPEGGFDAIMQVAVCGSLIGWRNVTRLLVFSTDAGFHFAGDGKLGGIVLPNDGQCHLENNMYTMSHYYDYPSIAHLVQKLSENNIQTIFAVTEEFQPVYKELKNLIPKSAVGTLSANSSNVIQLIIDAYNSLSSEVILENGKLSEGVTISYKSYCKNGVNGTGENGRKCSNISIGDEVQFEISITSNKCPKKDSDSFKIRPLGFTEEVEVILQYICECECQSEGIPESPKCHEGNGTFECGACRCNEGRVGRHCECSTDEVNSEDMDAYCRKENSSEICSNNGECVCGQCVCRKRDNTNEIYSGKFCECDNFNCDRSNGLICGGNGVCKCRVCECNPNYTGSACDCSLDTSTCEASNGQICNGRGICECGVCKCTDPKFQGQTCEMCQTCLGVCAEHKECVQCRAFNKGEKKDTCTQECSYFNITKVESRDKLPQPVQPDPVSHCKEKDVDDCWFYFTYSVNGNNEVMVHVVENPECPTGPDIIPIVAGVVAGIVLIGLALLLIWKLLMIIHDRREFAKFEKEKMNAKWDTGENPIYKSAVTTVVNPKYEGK

In the case of `C/C=C/[C@H](CC(=O)O)NC(=O)CN(CCCOC)C(=O)Cc1ccc(NC(=O)Nc2ccccc2C)cc1`, the IC50 in test [1] was 20.5 nM; in [2], more than 500000 nM; in test [3], 7.9 nM; in test [4] it was more than 100000 nM; in test [5] it was more than 500000 nM; in [6], 59000 nM. The results for the IC50 in test [7] and in [8] were 15.4 nM and 7.7 nM, respectively.
`Cc1ccccc1NC(=O)Nc1ccc(CC(=O)N[C@H](CC(=O)N(CC(=O)O)Cc2ccccc2)CC(C)C)cc1` yielded a concentration for half-maximal inhibition (IC50) in test [7] of 247000 nM.
In test [7], `Cc1ccccc1NC(=O)Nc1ccc(CC(=O)N(CCC(C)C)CC(=O)N[C@@H](CC(=O)O)c2ccccc2)cc1` yielded an IC50 of 29 nM.
With `COCCCN(CC(=O)N[C@@H](CC(=O)O)c1ccc(OC)c(OC)c1)C(=O)Cc1ccc(NC(=O)Nc2ccccc2C)cc1`, the half-inhibitory concentration (IC50) in test [1] is 21.6 nM; in [9] it was 27.3 nM; in test [2], more than 500000 nM; in test [3], 13.4 nM; in [4] it was more than 100000 nM; in test [5], more than 500000 nM. Also, the values for the IC50 in test [6] and in [7] were more than 100000 nM and 7.1 nM, respectively.
In test [7], `Cc1ccccc1NC(=O)Nc1ccc(CC(=O)N(CCC(C)C)CC(=O)N(CCC(=O)O)CCc2ccccc2)cc1` had an IC50 of 98 nM.
`COc1ccc([C@H](CC(=O)O)NC(=O)CN(CCC(C)C)C(=O)Cc2ccc(NC(=O)Nc3ccccc3C)cc2)cc1OC`: the IC50 in test [7] was determined as 20 nM.
Still for that read-out and setting: then `Cc1ccccc1NC(=O)Nc1ccc(CC(=O)N[C@@H](CC(=O)N[C@@H](CC(=O)O)c2ccccc2)CC(C)C)cc1`, with 262000 nM; and `Cc1ccccc1NC(=O)Nc1ccc(CC(=O)N[C@@H](CC(C)C)C(=O)N[C@@H](CC(=O)O)c2ccc3c(c2)OCO3)cc1`, with 3 nM; and `Cc1ccccc1NC(=O)Nc1ccc(CC(=O)N[C@H](CC(C)C)C(=O)N(CCC(=O)O)CCc2ccccc2)cc1`, with 37000 nM.
Still for that read-out and setting: in the case of `C=CCN(CC(=O)O)NC(=O)[C@@H](CC(C)C)NC(=O)Cc1ccc(NC(=O)Nc2ccccc2C)cc1` it was 11000 nM; in that of `Cc1ccccc1NC(=O)Nc1ccc(CC(=O)N[C@H](CC(=O)N[C@@H](C(=O)O)c2ccccc2)CC(C)C)cc1`, 6400 nM; in that of `Cc1ccccc1NC(=O)Nc1ccc(CC(=O)N[C@H](CC(=O)N[C@@H](CC(=O)O)c2ccccc2)CC(C)C)cc1`, 7300 nM.
As to `Cc1ccccc1NC(=O)Nc1ccc(CC(=O)NN(CC(C)C)C(=O)NC(CC(=O)O)c2ccccc2)cc1` (centres undefined), the half-inhibitory concentration (IC50) in test [7] is 2900 nM.
In test [7], `COCCCCN(CC(=O)N[C@@H](CC(=O)O)c1ccc(OC)c(OC)c1)C(=O)Cc1ccc(NC(=O)Nc2ccccc2C)cc1` showed an IC50 of 1.3 nM.
The same measure, in the same setting: in the case of `C=CC[C@H](CC(=O)O)NC(=O)[C@H](CC(C)C)NC(=O)Cc1ccc(NC(=O)Nc2ccccc2C)cc1` it was 16.5 nM.
Take `COCCCN(CC(=O)N[C@@H](CC(=O)O)c1ccccc1)C(=O)Cc1ccc(NC(=O)Nc2ccccc2C)cc1`: the IC50 in [1] was 24.5 nM; in [9] it was 21.7 nM; in test [2] it was more than 500000 nM; in [3], 14.4 nM; in [4], more than 100000 nM; in test [5], more than 500000 nM. The IC50 in test [6] is more than 100000 nM; in test [7], 11.7 nM.
As for `COCCCN(CC(=O)N[C@@H](CC(=O)O)c1ccc(OC)cc1)C(=O)Cc1ccc(NC(=O)Nc2ccccc2C)cc1`, the half-maximal inhibitory concentration (IC50) was 27.2 nM in test [1]; 51.9 nM in test [9]; 6140 nM in test [10]; more than 500000 nM in test [2]; 36 nM in test [3]; more than 500000 nM in test [5]. The IC50 in [6] is more than 100000 nM; in [7], 4.7 nM.
As for `CCOC(=O)C[C@H](NC(=O)CN(CCCOC)C(=O)Cc1ccc(NC(=O)Nc2ccccc2C)cc1)c1ccc(OC)cc1`, in [7], the IC50 was 75000 nM.
`C/C=C/[C@H](CC(=O)O)NC(=O)CN(CCC(C)C)C(=O)Cc1ccc(NC(=O)Nc2ccccc2C)cc1` displayed an IC50 in [7] of 45 nM.
In [7], `C/C=C/[C@@H](CC(=O)O)NC(=O)C[C@@H](CC(C)C)NC(=O)Cc1ccc(NC(=O)Nc2ccccc2C)cc1` had an IC50 of 103000 nM.
Still for that read-out and setting: then `C=CCC(CC(=O)O)NC(=O)N(CC(C)C)NC(=O)Cc1ccc(NC(=O)Nc2ccccc2C)cc1` (centres undefined), with 5900 nM.
